From ChEMBL document CHEMBL1909046, “DrugMatrix in vitro pharmacology data” come the findings set out here.

Series [1] in a line: DRUGMATRIX: Glutamate, NMDA, Phencyclidine radioligand binding (ligand: [3H] TCP). The format is cell membranes, Rattus norvegicus, Wistar, Cerebral cortex, Membrane. The conditions noted are these: Not Active = under 50% inhibition at 10 µM.
The target of series [2] is Voltage-gated inwardly rectifying potassium channel KCNH2 (Homo sapiens, UniProt Q12809). The conditions noted are these: hek293. Also: in other assays of this panel Not Active means under 50% inhibition at 10 µM.
Voltage-gated inwardly rectifying potassium channel KCNH2, sequence (Q12809 whole entry): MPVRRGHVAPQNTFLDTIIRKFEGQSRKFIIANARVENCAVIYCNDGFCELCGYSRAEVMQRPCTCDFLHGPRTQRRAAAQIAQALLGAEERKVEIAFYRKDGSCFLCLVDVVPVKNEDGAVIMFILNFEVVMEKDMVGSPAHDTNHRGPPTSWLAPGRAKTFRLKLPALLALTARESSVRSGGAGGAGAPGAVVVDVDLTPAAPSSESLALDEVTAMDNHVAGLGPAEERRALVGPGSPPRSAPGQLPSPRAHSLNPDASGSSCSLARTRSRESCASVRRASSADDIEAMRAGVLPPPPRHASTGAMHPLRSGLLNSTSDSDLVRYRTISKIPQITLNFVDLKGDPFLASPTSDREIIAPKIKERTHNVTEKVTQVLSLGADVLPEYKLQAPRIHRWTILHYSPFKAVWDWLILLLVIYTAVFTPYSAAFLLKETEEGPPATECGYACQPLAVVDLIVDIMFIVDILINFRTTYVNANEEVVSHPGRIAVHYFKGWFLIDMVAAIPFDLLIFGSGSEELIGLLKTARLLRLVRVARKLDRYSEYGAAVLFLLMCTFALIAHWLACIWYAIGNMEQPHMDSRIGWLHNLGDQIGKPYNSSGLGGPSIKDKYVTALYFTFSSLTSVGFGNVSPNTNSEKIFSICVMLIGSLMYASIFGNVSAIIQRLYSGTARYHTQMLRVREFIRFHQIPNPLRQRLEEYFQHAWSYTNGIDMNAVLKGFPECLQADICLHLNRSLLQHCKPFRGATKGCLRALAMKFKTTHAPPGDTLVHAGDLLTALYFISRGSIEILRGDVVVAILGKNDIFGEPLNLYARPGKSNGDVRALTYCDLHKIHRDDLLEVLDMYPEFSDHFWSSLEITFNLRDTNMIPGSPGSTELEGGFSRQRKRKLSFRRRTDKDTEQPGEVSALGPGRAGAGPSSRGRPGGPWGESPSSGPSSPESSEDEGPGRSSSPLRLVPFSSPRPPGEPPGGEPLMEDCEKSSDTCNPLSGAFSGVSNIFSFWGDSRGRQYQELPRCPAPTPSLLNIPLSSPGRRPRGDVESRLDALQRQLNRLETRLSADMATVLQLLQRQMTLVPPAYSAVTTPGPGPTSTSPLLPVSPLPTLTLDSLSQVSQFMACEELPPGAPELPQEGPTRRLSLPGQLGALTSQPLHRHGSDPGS
Series [3] concerns the target Kappa-type opioid receptor (Homo sapiens, UniProt P41145). The series can be described thus: DRUGMATRIX: Opiate kappa (OP2, KOP) radioligand binding (ligand: [3H] Diprenorphine). The series is classed as cell membranes, HEK293, Membrane. Conditions: Not Active = under 50% inhibition at 10 µM.
Series [4] in a line: DRUGMATRIX: Platelet-Derived Growth Factor (PDGF) radioligand binding (ligand: [125I] PDGF). The format is cell-based. The conditions noted are these: nih3t3; Not Active = under 50% inhibition at 10 µM.
The target of another series is Substance-P receptor (Homo sapiens, UniProt P25103). The format is cell membranes, Membrane. The conditions noted are these: cho. Also: in other assays of this panel Not Active means under 50% inhibition at 10 µM.
Substance-P receptor, sequence (P25103 whole entry): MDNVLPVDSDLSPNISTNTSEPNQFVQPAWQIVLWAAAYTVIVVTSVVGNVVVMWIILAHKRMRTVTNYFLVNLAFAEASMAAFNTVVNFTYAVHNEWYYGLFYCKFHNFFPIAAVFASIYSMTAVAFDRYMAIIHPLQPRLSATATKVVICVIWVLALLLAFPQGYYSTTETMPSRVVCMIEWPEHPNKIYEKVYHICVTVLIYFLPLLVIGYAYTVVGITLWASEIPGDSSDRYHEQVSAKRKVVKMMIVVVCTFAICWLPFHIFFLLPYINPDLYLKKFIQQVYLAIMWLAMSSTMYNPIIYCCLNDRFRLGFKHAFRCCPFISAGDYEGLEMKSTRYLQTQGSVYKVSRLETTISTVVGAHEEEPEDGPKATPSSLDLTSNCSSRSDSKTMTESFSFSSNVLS
For series [5], the target named is 5-hydroxytryptamine receptor 1B (Rattus norvegicus, UniProt P28564). The format is cell membranes, Wistar, Cerebral cortex, Membrane. Also: in other assays of this panel Not Active means under 50% inhibition at 10 µM.
5-hydroxytryptamine receptor 1B, sequence (P28564 whole entry): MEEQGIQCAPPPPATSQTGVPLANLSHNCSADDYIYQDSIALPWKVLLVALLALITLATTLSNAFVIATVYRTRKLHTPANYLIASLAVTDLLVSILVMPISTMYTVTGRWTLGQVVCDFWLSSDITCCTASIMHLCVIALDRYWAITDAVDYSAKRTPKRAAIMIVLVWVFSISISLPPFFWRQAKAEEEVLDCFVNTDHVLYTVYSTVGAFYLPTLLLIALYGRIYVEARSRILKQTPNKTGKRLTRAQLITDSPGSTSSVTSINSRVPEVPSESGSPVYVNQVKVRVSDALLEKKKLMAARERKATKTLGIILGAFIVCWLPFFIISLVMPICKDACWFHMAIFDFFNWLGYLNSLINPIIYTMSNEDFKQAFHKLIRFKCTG
The next series addresses Cytochrome P450 2C9 (Homo sapiens, UniProt P11712). The conditions noted are these: bti-tn-5b1-4.

Cytochrome P450 2C9, sequence (P11712 whole entry): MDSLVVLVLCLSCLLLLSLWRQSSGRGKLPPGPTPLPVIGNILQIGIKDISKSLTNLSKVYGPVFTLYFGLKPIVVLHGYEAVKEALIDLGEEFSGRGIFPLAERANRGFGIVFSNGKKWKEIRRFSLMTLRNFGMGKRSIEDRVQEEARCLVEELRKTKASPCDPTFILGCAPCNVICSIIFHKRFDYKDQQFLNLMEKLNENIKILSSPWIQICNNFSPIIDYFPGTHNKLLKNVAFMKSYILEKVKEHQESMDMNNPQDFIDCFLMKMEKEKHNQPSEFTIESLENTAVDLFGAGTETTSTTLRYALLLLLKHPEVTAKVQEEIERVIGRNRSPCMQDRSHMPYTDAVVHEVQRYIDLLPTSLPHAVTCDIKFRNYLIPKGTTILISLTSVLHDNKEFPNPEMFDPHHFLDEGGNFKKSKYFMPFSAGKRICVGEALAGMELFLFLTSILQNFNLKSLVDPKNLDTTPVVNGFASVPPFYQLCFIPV
Kappa-type opioid receptor, sequence (P41145 whole entry): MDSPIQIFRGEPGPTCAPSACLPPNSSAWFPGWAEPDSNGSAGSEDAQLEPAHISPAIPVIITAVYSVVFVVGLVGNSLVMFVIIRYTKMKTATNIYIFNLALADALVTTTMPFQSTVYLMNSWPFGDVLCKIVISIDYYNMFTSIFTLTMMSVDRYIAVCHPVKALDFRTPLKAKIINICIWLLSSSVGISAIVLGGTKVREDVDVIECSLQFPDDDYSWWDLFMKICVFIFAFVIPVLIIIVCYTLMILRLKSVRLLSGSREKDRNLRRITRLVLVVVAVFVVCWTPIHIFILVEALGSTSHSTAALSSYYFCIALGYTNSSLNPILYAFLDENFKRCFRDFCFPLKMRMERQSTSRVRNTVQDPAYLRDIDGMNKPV

In general, IC50 refers to the midpoint of a concentration-inhibition curve. Usually Ki stands for a measure of affinity in units of concentration, obtained from inhibition or displacement. For the compound `COc1ccccc1C(=O)N1CCC(Cc2ccccc2)CC1`, the IC50 entry (in series [1]; in series [2]; in series [3] (hek293); in series [4]; against Substance-P receptor; in series [5]) was “Not Active” in each case. For the same compound, the Ki result in series [1], in series [2] and in series [4] was “Not Active” throughout.
Turning to `Cc1ccccc1C(=O)N1CCC(Cc2ccccc2)CC1`, the IC50 entry (in series [1]; in series [2]; in series [3] (hek293); in series [4]; against Substance-P receptor; in series [5]) was “Not Active” throughout. Besides, the Ki result in series [1], in series [2] and in series [4] was “Not Active” in each case.
Turning to `S=C=Nc1cccc2ccccc12` [1-NAPHTHYLISOTHIOCYANATE], the IC50 entry (in series [1]; in series [2]; in series [4]; against Substance-P receptor; against Cytochrome P450 2C9; in series [5]) was “Not Active” each time. Moreover, the Ki result (in series [1]; in series [2]; in series [4]; on Cytochrome P450 2C9) was “Not Active” in each case.
Turning to `CCCC(=O)Nc1ccc(OCC(O)CNC(C)C)c(C(C)=O)c1` (stereo not drawn) [ACEBUTOLOL], the IC50 entry (in series [1]; in series [2]; in series [3] (hek293); in series [4]; on Substance-P receptor; in series [5]) was “Not Active” each time. The Ki result in series [1], in series [2] and in series [4] was “Not Active” throughout.
Regarding `CC(=O)Nc1ccc(O)cc1` [ACETAMINOPHEN], the IC50 result (in series [1]; in series [2]; in series [4]; on Substance-P receptor; at Cytochrome P450 2C9; in series [5]) was “Not Active” throughout. Moreover, the Ki entry (in series [1]; in series [2]; in series [4]; at Cytochrome P450 2C9) was “Not Active” throughout.
With `Cc1cc(=O)n(-c2ccccc2)n1C` [ANTIPYRINE], the IC50 result (in series [1]; in series [2]; in series [3] (hek293); in series [4]; on Substance-P receptor; in series [5]) was “Not Active” each time. Further, the Ki entry in series [1], in series [2] and in series [4] was “Not Active” in each case.
With `C[C@@]12C(=O)OC(=O)[C@]1(C)[C@H]1CC[C@@H]2O1` [CANTHARIDIN], the IC50 result (in series [1]; in series [2]; in series [4]; against Substance-P receptor; against Cytochrome P450 2C9; in series [5]) was “Not Active” in each case. The Ki entry (in series [1]; in series [2]; in series [4]; at Cytochrome P450 2C9) was “Not Active” each time.
As for `O=NN(CCCl)C(=O)NCCCl` [CARMUSTINE], the 50% inhibitory concentration (IC50) entry (in series [1]; in series [2]; in series [3] (hek293); in series [4]; against Substance-P receptor; in series [5]) was “Not Active” throughout. In addition, the Ki entry in series [1], in series [2] and in series [4] was “Not Active” in each case.
Regarding `CC1=C(C(=O)O)N2C(=O)[C@@H](NC(=O)[C@H](N)c3ccccc3)[C@H]2SC1` [CEPHALEXIN ANHYDROUS], the IC50 entry (in series [1]; in series [3] (hek293); in series [4]; on Substance-P receptor; in series [5]) was “Not Active” each time. In addition, the Ki result in series [1] and in series [4] was “Not Active” in each case.
Take `O=C(N[C@H](CO)[C@H](O)c1ccc([N+](=O)[O-])cc1)C(Cl)Cl` [CHLORAMPHENICOL]: the IC50 entry (in series [1]; in series [3] (hek293); in series [4]; against Substance-P receptor; in series [5]) was “Not Active” in each case. Also, the Ki result in series [1] and in series [4] was “Not Active” each time.
Regarding `CCOC(=O)C(C)(C)Oc1ccc(Cl)cc1` [CLOFIBRATE], the IC50 result (in series [1]; in series [2]; in series [3] (hek293); in series [4]; at Substance-P receptor; in series [5]) was “Not Active” each time. Further, the inhibitory constant (Ki) entry in series [1], in series [2] and in series [4] was “Not Active” in each case.
Turning to `C[C@@H]1C[C@@H]([C@H](O)CC2CC(=O)NC(=O)C2)C(=O)[C@@H](C)C1` [CYCLOHEXIMIDE], the IC50 entry (in series [1]; in series [2]; in series [4]; against Substance-P receptor; in series [5]) was “Not Active” each time. Moreover, the Ki result in series [1], in series [2] and in series [4] was “Not Active” in each case.
For `C/C=C/C[C@@H](C)[C@@H](O)[C@H]1C(=O)N[C@@H](CC)C(=O)N(C)CC(=O)N(C)[C@@H](CC(C)C)C(=O)N[C@@H](C(C)C)C(=O)N(C)[C@@H](CC(C)C)C(=O)N[C@@H](C)C(=O)N[C@H](C)C(=O)N(C)[C@@H](CC(C)C)C(=O)N(C)[C@@H](CC(C)C)C(=O)N(C)[C@@H](C(C)C)C(=O)N1C` [CYCLOSPORINE], the IC50 entry (in series [1]; in series [3] (hek293); in series [4]; on Substance-P receptor; in series [5]) was “Not Active” throughout. Also, the Ki result in series [1] and in series [4] was “Not Active” throughout.
In the case of `CN(C)/N=N/c1[nH]cnc1C(N)=O` [DACARBAZINE], the IC50 entry (in series [1]; in series [2]; in series [3] (hek293); in series [4]; against Substance-P receptor; in series [5]) was “Not Active” each time. Moreover, the Ki result in series [1], in series [2] and in series [4] was “Not Active” in each case.
In the case of `COP(=O)(OC)OC=C(Cl)Cl` [DICHLORVOS], the IC50 entry (in series [1]; in series [2]; in series [4]; against Substance-P receptor; against Cytochrome P450 2C9; in series [5]) was “Not Active” throughout. The Ki result (in series [1]; in series [2]; in series [4]; at Cytochrome P450 2C9) was “Not Active” in each case.
For `CN(C)c1ccc(C(=C2C=CC(=[N+](C)C)C=C2)c2ccc(N(C)C)cc2)cc1.[Cl-]` [GENTIAN VIOLET], the IC50 result is “Not Active” in series [1]; “Not Active” in series [2]; 1.54 µM in series [3] (read-out: IC50); “Not Active” in series [4]; “Not Active” at Substance-P receptor; “Not Active” in series [5]. Moreover, the Ki entry is “Not Active” in series [1], “Not Active” in series [2], 0.616 µM in series [3] (read-out: Ki) and “Not Active” in series [4].
In the case of `NC(=O)NO` [HYDROXYUREA], the IC50 result (in series [1]; in series [2]; in series [3] (hek293); in series [4]; against Substance-P receptor; in series [5]) was “Not Active” each time. In addition, the Ki result in series [1], in series [2] and in series [4] was “Not Active” throughout.
`Oc1ccc(OCc2ccccc2)cc1` [MONOBENZONE]: the IC50 entry (in series [1]; in series [2]; in series [3] (hek293); in series [4]; on Substance-P receptor; in series [5]) was “Not Active” each time. For the same compound, the Ki result in series [1], in series [2] and in series [4] was “Not Active” throughout.
For the compound `COc1ccc2cc([C@H](C)C(=O)O)ccc2c1` [NAPROXEN], the IC50 result (in series [1]; in series [3] (hek293); in series [4]; at Substance-P receptor; in series [5]) was “Not Active” throughout. In addition, the Ki entry in series [1] and in series [4] was “Not Active” throughout.
Consider `COC(=O)C1=C(C)NC(C)=C(C(=O)OCC(C)C)C1c1ccccc1[N+](=O)[O-]` (stereo not drawn) [NISOLDIPINE], for which the IC50 entry (in series [1]; in series [3] (hek293); in series [4]; at Substance-P receptor; in series [5]) was “Not Active” throughout. The Ki entry in series [1] and in series [4] was “Not Active” each time.
On to `CCn1cc(C(=O)O)c(=O)c2cc(F)c(N3CCN(C)CC3)cc21` [PEFLOXACIN], for which the IC50 entry (in series [1]; in series [3] (hek293); in series [4]; on Substance-P receptor; in series [5]) was “Not Active” throughout. In addition, the Ki result in series [1] and in series [4] was “Not Active” in each case.
As for CADMIUM DICHLORIDE, the IC50 result (in series [1]; in series [2]; in series [4]; on Substance-P receptor; on Cytochrome P450 2C9; in series [5]) was “Not Active” throughout. In addition, the Ki entry (in series [1]; in series [2]; in series [4]; on Substance-P receptor; at Cytochrome P450 2C9; in series [5]) was “Not Active” in each case.
